According to paper PMC9293909 (Nature Communications, 2022):
Values joined by “and” are separate entries in the source; they are usually repeats but may differ in a detail not shown here. Identical values can stand only once. Like-named read-outs stand apart in the source and are kept apart here.

Tests used:
respiration (f, VT, VE) = test: Urethane-anaesthetised rat, respiration; conditions: Fig6e
Method: The femoral vein was catheterised for drug delivery.
Adult male Sprague–Dawley rats (400-500 g) were anaesthetised with urethane and instrumented as described above, with the exception that the arterial cannulation was not performed.
Changes in f, VT, and VE were measured. If the dosing occurred close to a respiratory event such as a sigh a second IV dose was administered, with 20 min recovery periods either side of the injection.

[1] = tested on: heart rate and mean arterial blood pressure; test: Urethane-anaesthetised rat, heart rate and arterial blood pressure; conditions: for HR / HR, Average / MAP, Average: Fig6e
Description: Anaesthesia was induced in adult male Sprague–Dawley rats (230-330 g) with isofluorane (2–4%; Piramal Healthcare). The femoral vein was catheterised for drug delivery. Anaesthesia was maintained with urethane (1.2–1.7 g kg^−1; Sigma) in sterile saline delivered via the femoral vein catheter. […] The trachea was cannulated and the femoral artery catheterised, and both were connected to pressure transducers (Digitimer) to record respiratory airflow and arterial blood pressure, respectively. Blood pressure and airflow signals were amplified using the NeuroLog system (Digitimer) connected to a micro1401 interface and acquired on a computer using Spike2 software (v7.08a; Cambridge Electronic Design). […] Airflow measurements were used to calculate: tidal volume (VT; mL; pressure sensors were calibrated with a 3 mL syringe), and respiratory frequency (f; breaths min^−1; BrPM). Minute ventilation (VE; mL min^−1) was calculated as f × VT.
Cardiovascular and respiratory parameters were allowed to stabilise before experiments began. A1R agonists were administered by intravenous (IV) injection and the changes in HR, MAP, f, VT, and VE were measured. […] All injections were administered IV as a 350 µl·kg^-1 bolus.

[2] = tested on: neuropathic pain (paw withdrawal threshold); test: Spinal nerve ligation (Chung model), mechanical allodynia, von Frey; type: in vivo, rat
Method: Adult male Sprague–Dawley rats, 7-8 weeks old, weighing around 250 g at the time of Chung model surgery, were purchased from Charles River UK Ltd. The animals were housed in groups of 4 in an air-conditioned room on a 12-hour light/dark cycle. Food and water were available ad libitum. They were allowed to acclimatise to the experimental environment for three days by leaving them on a raised metal mesh for at least 40 min. The baseline paw withdrawal threshold (PWT) was examined using a series of graduated von Frey hairs (see below) for 3 consecutive days before surgery and re-assessed on the 6th to 8th day after surgery and on the 13th to 17th day after surgery before drug dosing.
Prior to surgery each rat was anaesthetised with 3% isoflurane mixed with oxygen (2 L min^−1) followed by an intramuscular injection of ketamine (60 mg kg^−1) plus xylazine (10 mg kg^−1). The back was shaved and sterilised with povidone-iodine. The animal was placed in a prone position and a para-medial incision was made on the skin covering the L4-6 level. The L5 spinal nerve was carefully isolated and tightly ligated with 6/0 silk suture. The wound was then closed in layers after a complete haemostasis. A single-dose of antibiotics (Amoxipen, 15 mg/rat, intraperitoneally, IP) was routinely given for prevention of infection after surgery. The animals were placed in a temperature-controlled recovery chamber until fully awake before being returned to their home cages. The vehicle (normal saline or DMSO) was administered via the IV route at 1 ml·kg^−1 and via the intrathecal (IT) route at 10 µl for each injection. […] To test for mechanical allodynia the animals were placed in individual Perspex boxes on a raised metal mesh for at least 40 min before the test. Starting from the filament of lower force, each filament was applied perpendicularly to the centre of the ventral surface of the paw until slightly bent for 6 seconds. If the animal withdrew or lifted the paw upon stimulation, then a hair with force immediately lower than that tested was used. If no response was observed, then a hair with force immediately higher was tested. […] The animals were returned to their home cages to rest (about 30 min) between two neighbouring testing time points. At the end of each experiment, the animals were deeply anaesthetised with isoflurane and killed by decapitation.

[3] = Half-life determination in PBS; type: physicochemical; conditions: for 1st / % Compound Remaining / 2nd / % Compound Remaining / Mean / % Compound Remaining: PBS, pH 7.4; for half-life: buffer, pH 7.4, PBS
Method: […] Samples were analysed by HPLC-MS/MS and corresponding peak areas were recorded for each analyte. The ratio of precursor compound remaining after each time-point relative to the amount present at time 0, expressed as a percentage, is reported as chemical stability.

motor coordination = tested on: motor coordination
Method: On the day of the experiment, three baseline trials were recorded. The compound was administered IP (10 µg kg^−1, n = 6) or IV via tail vein injection (10 and 25 µg kg^−1, n = 6 per group). The control group received subcutaneous saline and the positive control group received subcutaneous morphine (15 mg kg^−1). Latency to fall (seconds) was measured in triplicate at 1, 2, 3 and 5 h post drug administration.

[4] = incubation 0 minutes, UoBern01 at 1.00E-06 M
[5] = incubation 60 minutes, UoBern01 at 1.00E-06 M
[6] = incubation 120 minutes, UoBern01 at 1.00E-06 M
[7] = antagonist group, 1h after dosing
[8] = antagonist group, 2h after dosing
[9] = antagonist group, 4h after dosing

**Q.** What does the source list for `OC[C@H]1O[C@@H](n2cnc3c(N[C@@H]4CCC[C@H]4OCc4ccccc4)ncnc32)[C@H](O)[C@@H]1O` [B]?
**A.** Freq, Average (respiration (f, VT, VE); dose group B 8, n 12): 166.9; Freq, Average (respiration (f, VT, VE); dose group B 17, n 4): 189.3; Freq, Average (respiration (f, VT, VE); dose group B 25, n 4): 209.0; HR ([1]; dose group B 8, individual rat): 406 and 368 and 425 and 416 and 331 and 340 and 420 and 470; HR, Average ([1]; dose group B 8, n 8): 397.0; MAP, Average ([1]; dose group B 8, n 8): 111.3; HR ([1]; dose group B 17, individual rat): 369 and 385 and 301 and 313; HR, Average ([1]; dose group B 17, n 4): 342.0; MAP, Average ([1]; dose group B 17, n 4): 115.8; HR ([1]; dose group B 25, individual rat): 362 and 382 and 312 and 305; HR, Average ([1]; dose group B 25, n 4): 340.3; MAP, Average ([1]; dose group B 25, n 4): 113.5

**Q.** Which “paw withdrawal threshold, individual animals (Fig7d)” value ([2]; 6ug, 1h after dosing) does the source give for `OC[C@H]1O[C@@H](n2cnc3c(NC4CCCC4OCc4ccccc4)ncnc32)[C@H](O)[C@@H]1O` (some centres unmarked) [BnOCPAA] here?
**A.** 8

**Q.** What about the “paw withdrawal threshold, Average (Fig7d)” value ([2]; 6ug, 1h after dosing, n 11) of the same molecule?
**A.** 9.8

**Q.** And the “paw withdrawal threshold, individual animals (Fig7d)” value ([2]; 6ug, 2h after dosing)?
**A.** 8

**Q.** What about the “paw withdrawal threshold, Average (Fig7d)” value ([2]; 6ug, 2h after dosing, n 11) of the same molecule?
**A.** 12.6

**Q.** And the “paw withdrawal threshold, individual animals (Fig7d)” value ([2]; 6ug, 4h after dosing)?
**A.** 8

**Q.** And the “paw withdrawal threshold, Average (Fig7d)” value ([2]; 6ug, 4h after dosing, n 11)?
**A.** 9.8

**Q.** What does the source list for `O=C(O)CCCc1ccc(N(CCCl)CCCl)cc1` [Chlorambucil]?
**A.** 1st / % Compound Remaining [3, 4]: 100%; 2nd / % Compound Remaining [3, 4]: 100%; Mean / % Compound Remaining [3, 4]: 100%; 1st / % Compound Remaining ([3]; incubation 30 minutes): 68.5%; 2nd / % Compound Remaining ([3]; incubation 30 minutes): 81.3%; Mean / % Compound Remaining ([3]; incubation 30 minutes): 74.9%; 1st / % Compound Remaining [3, 5]: 45.8%; 2nd / % Compound Remaining [3, 5]: 52.3%; Mean / % Compound Remaining [3, 5]: 49.1%; 1st / % Compound Remaining ([3]; incubation 90 minutes): 27.3%; 2nd / % Compound Remaining ([3]; incubation 90 minutes): 31%; Mean / % Compound Remaining ([3]; incubation 90 minutes): 29.2%; 1st / % Compound Remaining [3, 6]: 11%; 2nd / % Compound Remaining [3, 6]: {17.7} %; Mean / % Compound Remaining [3, 6]: 11%; half-life ([3]; UoBern01 at 1.00E-06 M, read-out: 1st / Half-Life): 39 min; half-life ([3]; UoBern01 at 1.00E-06 M, read-out: 2nd / Half-Life): 52.6 min; half-life ([3]; UoBern01 at 1.00E-06 M, read-out: Mean / Half-Life): 46 min

**Q.** For `CCCn1c(=O)c2[nH]c(C3CCCC3)nc2n(CCC)c1=O` [DPCPX], which “effect on reversal of mechanical allodynia by BnOCPA” value ([2]; DPCPX 1 mg kg^−1 IP, BnOCPA 6 µg kg^−1 IV) is on record?
**A.** prevented the reversal of mechanical allodynia by BnOCPA

**Q.** What about the “paw withdrawal threshold, Average (Fig7d)” value [2, 7] of the same molecule?
**A.** 4.0

**Q.** What about the “paw withdrawal threshold, individual animals (Fig7d)” value [2, 7] of the same molecule?
**A.** 6 and 4 and 2

**Q.** And the “paw withdrawal threshold, Average (Fig7d)” value [2, 8]?
**A.** 4.0

**Q.** What about the “paw withdrawal threshold, individual animals (Fig7d)” value [2, 8] of the same molecule?
**A.** 6 and 4 and 2

**Q.** And the “paw withdrawal threshold, Average (Fig7d)” value [2, 9]?
**A.** 4.7

**Q.** And the “paw withdrawal threshold, individual animals (Fig7d)” value [2, 9]?
**A.** 6 and 4 and 2

**Q.** With `CCCOC(=O)c1c(-c2ccccc2)nc(CC)c(C(=O)SCC)c1CCC` [MRS1523] as the molecule, how does the “effect on analgesia caused by BnOCPA” value ([2]; MRS1523 2 mg kg^−1 IP, BnOCPA 6 µg kg^−1 IV) read?
**A.** had no effect on the analgesia caused by BnOCPA

**Q.** And the “paw withdrawal threshold, Average (Fig7d)” value [2, 7]?
**A.** 13.6

**Q.** And the “paw withdrawal threshold, individual animals (Fig7d)” value [2, 7]?
**A.** 15 and 8

**Q.** What about the “paw withdrawal threshold, Average (Fig7d)” value [2, 8] of the same molecule?
**A.** 14.0

**Q.** What about the “paw withdrawal threshold, individual animals (Fig7d)” value [2, 8] of the same molecule?
**A.** 15 and 10

**Q.** And the “paw withdrawal threshold, Average (Fig7d)” value [2, 9]?
**A.** 12.2

**Q.** What about the “paw withdrawal threshold, individual animals (Fig7d)” value [2, 9] of the same molecule?
**A.** 15 and 10 and 6

**Q.** With `Nc1ncnc2c1ncn2[C@@H]1O[C@H](CO)[C@@H](O)[C@H]1O` [ado] as the molecule, how does the heart rate ([1]; Fig5c, individual rat) read?
**A.** 179 and 147 and 138 and 122

**Q.** And the “heart rate, Average” value ([1]; Fig5c, n 4)?
**A.** 147

**Q.** And the “mean arterial blood pressure” value ([1]; Fig5d, individual rat)?
**A.** 56 and 36 and 42 and 48

**Q.** And the “mean arterial blood pressure, Average” value ([1]; Fig5d, n 4)?
**A.** 46

**Q.** With `CN1CC[C@]23c4c5ccc(O)c4O[C@H]2[C@@H](O)C=C[C@H]3[C@H]1C5` [morphine] as the molecule, how does the “Seconds on rota, 1h avg” value (motor coordination; Morphine, 1h post inj, avg of 3 trials per animal) read?
**A.** 12.0 s and 6.0 s and 5.0 s and 6.3 s and 10.7 s and 10.3 s

**Q.** What about the 1h avg/ baseline (motor coordination; Morphine, 1h post inj, per animal) of the same molecule?
**A.** 0.218 and 0.137 and 0.1 and 0.2 and 0.164 and 0.0833

**Q.** What about the “Seconds on rota, 1h” value (motor coordination; Morphine, 1h post inj, single trials, individual animals) of the same molecule?
**A.** 5 s and 14 s and 17 s and 9 s and 4 s and 2 s and 10 s and 8 s and 1 s and 12 s

**Q.** What about the “average of avg/baseline, 1hr post inj” value (motor coordination; Morphine, 1hr, group average) of the same molecule?
**A.** 0.150

**Q.** And the “Seconds on rota, 2h avg” value (motor coordination; Morphine, 2h post inj, avg of 3 trials per animal)?
**A.** 34.0 s and 19.7 s and 12.3 s and 6.7 s and 21.7 s and 31.0 s

**Q.** What about the 2h avg/ baseline (motor coordination; Morphine, 2h post inj, per animal) of the same molecule?
**A.** 0.6 and 0.45 and 0.259 and 0.2 and 0.333 and 0.25

**Q.** And the “Seconds on rota, 2h” value (motor coordination; Morphine, 2h post inj, single trials, individual animals)?
**A.** 30 Seconds and 27 Seconds and 45 Seconds and 7 Seconds and 18 Seconds and 34 Seconds and 2 Seconds and 17 Seconds and 8 Seconds and 6 Seconds (2×) and 24 Seconds and 22 Seconds and 19 Seconds and 26 Seconds

**Q.** And the “average of avg/baseline, 2hr post inj” value (motor coordination; Morphine, 2hr, group average)?
**A.** 0.352

**Q.** What about the “Seconds on rota, 3h avg” value (motor coordination; Morphine, 3h post inj, avg of 3 trials per animal) of the same molecule?
**A.** 46.3 s and 37.7 s and 34.0 s and 18.7 s and 55.0 s

**Q.** What about the 3h avg/ baseline (motor coordination; Morphine, 3h post inj, per animal) of the same molecule?
**A.** 0.842 and 0.9 and 0.7 and 0.566 and 0.444

**Q.** What about the “Seconds on rota, 3h” value (motor coordination; Morphine, 3h post inj, single trials, individual animals) of the same molecule?
**A.** 39 s and 41 s and 59 s and 27 s and 29 s and 57 s and 21 s and 54 s and 11 s and 23 s and 22 s and 26 s and 65 s

**Q.** And the “average of avg/baseline, 3hr post inj” value (motor coordination; Morphine, 3hr, group average)?
**A.** 0.690

**Q.** And the “Seconds on rota, 5h avg” value (motor coordination; Morphine, 5h post inj, avg of 3 trials per animal)?
**A.** 48.7 s and 52.3 s and 48.0 s and 81.7 s and 84.3 s

**Q.** And the 5h avg/ baseline (motor coordination; Morphine, 5h post inj, per animal)?
**A.** 0.9 and 1.1 and 1.5 and 1.3 and 0.7

**Q.** What about the “Seconds on rota, 5h” value (motor coordination; Morphine, 5h post inj, single trials, individual animals) of the same molecule?
**A.** 24 s and 57 s and 65 s and 31 s and 60 s and 55 s and 19 s and 73 s and 38 s and 51 s and 67 s and 81 s and 97 s and 88 s and 100 s

**Q.** What about the “average of avg/baseline, 5hr post inj” value (motor coordination; Morphine, 5hr, group average) of the same molecule?
**A.** 1.081

**Q.** And the rotarod performance (motor coordination; morphine 15 mg kg^−1 SC)?
**A.** caused sedation and motor impairment
